Data published in ChEMBL document CHEMBL1141744, “Antibacterial steroidal alkaloids from Sarcococca saligna” (1998).

What was measured:
Klebsiella pneumoniae = assay: Antibacterial activity against Klebsiella pneumoniae at 200 ug/100uL after 24 hrs by agar well diffusion method; assay type: functional
Pseudomonas aeruginosa = assay: Antibacterial activity against Pseudomonas aeruginosa at 200 ug/100uL after 24 hrs by agar well diffusion method; assay type: functional
Staphylococcus aureus = assay: Antibacterial activity against Staphylococcus aureus at 200 ug/100uL after 24 hrs by agar well diffusion method; assay type: functional
Shigella boydii = assay: Antibacterial activity against Shigella boydii at 200 ug/100uL after 24 hrs by agar well diffusion method; assay type: functional
Salmonella typhi = assay: Antibacterial activity against Salmonella typhi at 200 ug/100uL after 24 hrs by agar well diffusion method; assay type: functional, Salmonella enterica subsp. enterica serovar Typhi
Proteus mirabilis = assay: Antibacterial activity against Proteus mirabilis after at 200 ug/100uL 24 hrs by agar well diffusion method; assay type: functional
Streptococcus pyogenes = assay: Antibacterial activity against Streptococcus pyogenes at 200 ug/100uL after 24 hrs by agar well diffusion method; assay type: functional

SMILES	inhibition zone (IZ) (Klebsiella pneumoniae) [mm]	inhibition zone (IZ) (Pseudomonas aeruginosa) [mm]	inhibition zone (IZ) (Staphylococcus aureus) [mm]	inhibition zone (IZ) (Shigella boydii) [mm]	inhibition zone (IZ) (Salmonella typhi) [mm]	inhibition zone (IZ) (Proteus mirabilis) [mm]	inhibition zone (IZ) (Streptococcus pyogenes) [mm]
C[C@@H]([C@H]1CC[C@H]2[C@@H]3CC[C@H]4C[C@@H](N(C)C(=O)CCc5ccccc5)CC[C@]4(C)[C@H]3CC[C@]12C)N(C)C	10.5	7.5	11				
C[C@@H]([C@H]1CC[C@H]2[C@@H]3CC[C@H]4C[C@@H](N(C)CCCc5ccccc5)CC[C@]4(C)[C@H]3CC[C@]12C)N(C)C		5.5					
C[C@@H]([C@H]1CC[C@H]2[C@@H]3CC[C@H]4C[C@@H](N(C)C(=O)c5ccccc5)CC[C@]4(C)[C@H]3CC[C@]12C)N(C)C	8	6	12	6	6	8	6
C[C@@H]([C@H]1CC[C@H]2[C@@H]3CC[C@H]4C[C@@H](N(C)Cc5ccccc5)CC[C@]4(C)[C@H]3CC[C@]12C)N(C)C	6	5.5	9				
CC1(C)S[C@@H]2[C@H](NC(=O)[C@H](N)c3ccc(O)cc3)C(=O)N2[C@H]1C(=O)O [AMOXICILLIN]	17	15	16	17	12	16	16
CC1(C)S[C@@H]2[C@H](NC(=O)[C@H](N)c3ccccc3)C(=O)N2[C@H]1C(=O)O [AMPICILLIN]	17	15	18	17	12	17	17
C[C@@H]([C@H]1CC[C@H]2[C@@H]3CC[C@H]4C[C@@H](NC(=O)c5ccccc5)CC[C@]4(C)[C@H]3CC[C@]12C)N(C)C [EPIPACHYSAMINE D]			7				
C[C@@H]([C@H]1CC[C@H]2[C@@H]3CC[C@H]4C[C@@H](N(C)C(=O)/C=C/c5ccccc5)CC[C@]4(C)[C@H]3CC[C@]12C)N(C)C [SALIGCINNAMIDE]	9	6	12	6	6	7	8
